Measurements from patent US20230272016A1, “PEPTIDES FOR IMMUNOTHERAPY” (Second Genome, Inc., priority 2020, published 2023).

Tested on: human T cells
Experiment: Human T cell activation assay (anti-CD3 plus peptide, cytokine secretion)
Assay type: cell-based
Method: FIGS. 11 and 12 show 150 peptide variants of the SG-3-0020 1-29 aa N-terminal+middle region, derived from a combinatorial phage display library, were tested for activation potential of human T cells. […] Increase in cytokine secretion was concordant in 3 donors.
For example, PBMCs were obtained from individual human donors.
T-cell activation was also determined as described previously (see above and International Application No. PCT/US2020/012431). […] Separate N-, MID, and C-terminal fragments lose activity. The data support that both N- and middle region are minimally required for binding and activation to T cells.

[1] = Table 11, 150 combinatorial library variants of SEQ ID NO:1
[2] = Table 10, combinatorial library variants of SEQ ID NO:1

Substance	mean_ES_IFN-γ [1]	mean_ES_IFN-γ [2]
FASAAKGKTHDHWGSGRYRPPPWHDWRGS [SEQ ID NO: 244]	0.9882	–
FASAAKGKTHDHYPGGRMRPPPWHDWRFS [SEQ ID NO: 254]	0.9426	–
FASAAKGKTHDHYPSGRYRPPPWHDWRAS [SEQ ID NO: 298]	0.6625	–
FASAAKGKTHDHYWSGRYRPPPWHDWRAS [SEQ ID NO: 33]	1.036	1.036
FASGAKGKTHDHNWGGRYRDPGWHDWRAS [SEQ ID NO: 281]	0.7548	–
FASGAKGKTHDHYPSGRHRPPPWHDWRAS [SEQ ID NO: 316]	0.5231	–
FGSAAKGKTHDHWPSGRHRDPGWHDWRFS [SEQ ID NO: 23]	1.129	1.129
FGSAAKGKTHDHYWSGRMRPPPWHDWRGS [SEQ ID NO: 34]	1.028	1.028
FGSGAKGKTHDHWGGGRHRPPPWHDWRGS [SEQ ID NO: 6]	1.321	1.321
FGSGAKGKTHDHYPSGRMRPPPWHDWRVR [SEQ ID NO: 7]	1.319	1.319
FLSAAKGKTHDHNWGGRMRPPPWHDWRFS [SEQ ID NO: 255]	0.935	–
FLSGAKGKTHDHYPSGRYRPPPWHDWRAR [SEQ ID NO: 15]	1.193	1.193
FPSGAKTKWHDHNPSGRMRDPPWHDWRFS [SEQ ID NO: 306]	0.6024	–
FPSGAKTKWHDHNPSGRMRDPPWHDWRFSa [SEQ ID NO: 273]	0.8203	–
FQSTAKGKTHDHWPSGRMRPPPWHDWRAS [SEQ ID NO: 267]	0.8487	–
FSSAAKGKWHDHWPGGRYRDPPWHDWRVS [SEQ ID NO: 14]	1.215	1.215
FSSAAKTKWHDHYGSGRYRPPPWHDWRFS [SEQ ID NO: 355]	−0.4086	–
FVSAAKGKTHDHYPSGRYRPPPWHDWRAR [SEQ ID NO: 25]	1.088	1.088
FVSGAKGKWHDHWPSGRWRDPPWHDWRAS [SEQ ID NO: 10]	1.26	1.26
FVSTAKGKTHDHNWSGRMRPPPWHDWRGR [SEQ ID NO: 248]	0.9668	–
MASAAKGKTHDHYPGGRMRPPPWHDWRAS [SEQ ID NO: 252]	0.9483	–
MASAAKGKTHDHYPSGRMRPPPWHDWRFS [SEQ ID NO: 263]	0.8848	–
MASAAKGKWHDHNPSGRHRDPGWHDWWGS [SEQ ID NO: 288]	0.7207	–

Substance	mean_ES_IFN-γ [1]	mean_ES_IFN-γ [2]
MASAAKGKWHDHWGSGRHRPPPWHDWRVS [SEQ ID NO: 11]	1.237	1.237
MASAAKTKWHDHYPSGRMRPPPWHDWRAR [SEQ ID NO: 27]	1.075	1.075
MASGAKGKTHDHNWSGRMRPPPWHDWRGR [SEQ ID NO: 245]	0.9801	–
MASGAKGKTHDHYPGGRMRPPPWHDWRAR [SEQ ID NO: 287]	0.7208	–
MASGAKGKWHDHYGGGRMRDPGWHDWRFS [SEQ ID NO: 342]	0.2325	–
MASTAKGKTHDHWPGGRMRPPPWHDWRGS [SEQ ID NO: 320]	0.5063	–
MASTAKGKTHDHYGGGRMRPPPWHDWRVR [SEQ ID NO: 314]	0.5458	–
MGSAAKGKTHDHYPSGRMRPPPWHDWRGS [SEQ ID NO: 349]	−0.09755	–
MGSAAKGKWHDHNGSGRMRPPPWHDWRAR [SEQ ID NO: 279]	0.7782	–
MGSAAKGKWHDHYGSGRMRPPPWHDWRVR [SEQ ID NO: 262]	0.8865	–
MGSAAKGKWHDHYPGGRHRDPPWHDWRAS [SEQ ID NO: 319]	0.5086	–
MGSAAKTKWHDHYGGGRMRPPPWHDWRAR [SEQ ID NO: 247]	0.9744	–
MGSAAKTKWHDHYPGGRMRPPPWHDWRFS [SEQ ID NO: 337]	0.2836	–
MGSGAKGKTHDHNWGGRHRDPGWHDWWVS [SEQ ID NO: 285]	0.7319	–
MGSGAKGKTHDHWPSGRMRPPPWHDWRVS [SEQ ID NO: 268]	0.8466	–
MGSGAKTKTHDHYPGGRYRPPPWHDWRVS [SEQ ID NO: 276]	0.8105	–
MGSGAKTKWHDHWPSGRMRPPPWHDWRFS [SEQ ID NO: 284]	0.7374	–
MLSAAKGKTHDHYPSGRYRPPPWHDWRAR [SEQ ID NO: 269]	0.8464	–
MLSAAKTKTHDHWGSGRMRDPPWHDWRVS [SEQ ID NO: 351]	−0.1331	–
MLSGAKGKTHDHYWGGRMRPPPWHDWRGS [SEQ ID NO: 22]	1.134	1.134
MLSGAKTKTHDHNPSGRMRDPPWHDWRVR [SEQ ID NO: 293]	0.7047	–
MLSTAKGKTHDHWGGGRMRPPPWHDWRFS [SEQ ID NO: 2]	1.408	1.408
MLSTAKGKTHDHYGGGRMRPPPWHDWRFS [SEQ ID NO: 249]	0.9561	–

Substance	mean_ES_IFN-γ [1]	mean_ES_IFN-γ [2]
MLSTAKGKTHDHYWGGRMRPPPWHDWRFS [SEQ ID NO: 292]	0.7049	–
MPSAAKGKTHDHNGGGRMRPPPWHDWRFS [SEQ ID NO: 311]	0.5631	–
MPSAAKGKTHDHYPSGRMRPPPWHDWRGR [SEQ ID NO: 333]	0.3234	–
MPSAAKGKTHDHYWSGRMRPPPWHDWRVS [SEQ ID NO: 246]	0.9753	–
MPSAAKGKWHDHYGSGRYRPPPWHDWRVR [SEQ ID NO: 326]	0.43	–
MPSAAKGKWHDHYPGGRMRDPKWHDWRFS [SEQ ID NO: 8]	1.282	1.282
MPSAAKGKWHDHYPSGRMRPPPWHDWRAR [SEQ ID NO: 12]	1.216	1.216
MPSAAKTKWHDHNWSGRMRPPPWHDWRAR [SEQ ID NO: 270]	0.8446	–
MPSAAKTKWHDHYPGGRMRPPPWHDWRGR [SEQ ID NO: 16]	1.186	1.186
MPSAAKTKWHDHYPSGRMRPPPWHDWRGR [SEQ ID NO: 28]	1.071	1.071
MPSGAKGKTHDHYGGGRMRPPPWHDWRFS [SEQ ID NO: 13]	1.216	1.216
MPSGAKGKWHDHYGGGRMRDPGWHDWRGS [SEQ ID NO: 317]	0.5191	–
MPSTAKGKWHDHNPSGRMRPPPWHDWRGR [SEQ ID NO: 277]	0.7934	–
MSSAAKGKTHDHNWSGRYRPPPWHDWRVR [SEQ ID NO: 242]	0.9993	–
MSSGAKGKWHDHNWGGRMRDPGWHDWWGS [SEQ ID NO: 301]	0.6348	–
MSSGAKGKWHDHYGSGRHRPPPWHDWRVR [SEQ ID NO: 243]	0.9926	–
MSSGAKGKWHDHYPSGRMRPPPWHDWRFS [SEQ ID NO: 3]	1.384	1.384
MSSGAKTKTHDHYPSGRMRPPPWHDWRAR [SEQ ID NO: 303]	0.6184	–
MVSAAKTKTHDHNGGGRMRPPPWHDWRFS [SEQ ID NO: 258]	0.9135	–
MVSTAKGKTHDHYGGGRYRPPPWHDWRAR [SEQ ID NO: 266]	0.8498	–
MVSTAKGKTHDHYGSGRYRPPPWHDWRGS [SEQ ID NO: 340]	0.276	–
MVSTAKGKTHDHYPSGRYRPPPWHDWRFS [SEQ ID NO: 29]	1.052	1.052
PASAAKGKTHDHWPSGRHRDPPWHDWRGS [SEQ ID NO: 353]	−0.2788	–

Substance	mean_ES_IFN-γ [1]	mean_ES_IFN-γ [2]
PASAAKGKWHDHNPSGRMRDPPWHDWWGS [SEQ ID NO: 327]	0.4162	–
PASGAKGKTHDHYPSGRWRDSGWHDWRFS [SEQ ID NO: 313]	0.5536	–
PASGAKTKWHDHNPSGRHRDPPWHDWRVS [SEQ ID NO: 328]	0.3967	–
PLSAAKGKWHDHYWSGRMRDPPWHDWRVS [SEQ ID NO: 260]	0.8986	–
PLSAAKTKTHDHNWSGRYRPPPWHDWRAR [SEQ ID NO: 282]	0.7514	–
PLSAAKTKWHDHYGGGRMRPPPWHDWRFS [SEQ ID NO: 265]	0.8534	–
PSSAAKGKTHDHYPGGRYRDPGWHDWRGR [SEQ ID NO: 343]	0.2141	–
PSSAAKGKTHDHYPGGRYRPPPWHDWRVS [SEQ ID NO: 264]	0.8772	–
PTSAAKGKTHDHYPGGRYRDPPWHDWRAS [SEQ ID NO: 356]	−0.5055	–
PVSAAKGKTHDHWPGGRMRDPPWHDWRAS [SEQ ID NO: 329]	0.3768	–
PVSAAKGKWHDHNWSGRMRPPPWHDWRAR [SEQ ID NO: 18]	1.169	1.169
PVSAAKGKWHDHYPSGRWRDPPWHDWRAS [SEQ ID NO: 321]	0.4882	–
SASAAKGKTHDHWGGGRHRDPPWHDWRFS [SEQ ID NO: 341]	0.2746	–
SPSGAKGKTHDHYPSGRMRPPPWHDWRFS [SEQ ID NO: 261]	0.8871	–
SPSGAKTKWHDHNPGGRMRPPPWHDWRAR [SEQ ID NO: 324]	0.4459	–
SSSGAKGKWHDHNPSGRWRDPGWHDWRVR [SEQ ID NO: 325]	0.4435	–
SSSGAKGKWHDHYGGGRHRDPPWHDWRGS [SEQ ID NO: 344]	0.1326	–
SVSAAKGKTHDHYPSGRWRDPPWHDWRAS [SEQ ID NO: 300]	0.645	–
VGSAAKTKTHDHYGGGRMRPPPWHDWRFS [SEQ ID NO: 331]	0.3468	–
VGSGAKGKTHDHNGSGRYRPPPWHDWRFS [SEQ ID NO: 299]	0.6497	–
VHSAAKTKTHDHWGSGRMRDPPWHDWRGS [SEQ ID NO: 346]	0.04292	–
